Assays:
MDA-MB-468 = assay: Growth inhibition of human MDA-MB-468 cells; type: functional
[1] = target: T1, Serine/threonine-protein kinase PLK4 (Homo sapiens, UniProt O00444); assay: Inhibition of PLK4 (unknown origin)
T1 sequence (O00444 whole entry): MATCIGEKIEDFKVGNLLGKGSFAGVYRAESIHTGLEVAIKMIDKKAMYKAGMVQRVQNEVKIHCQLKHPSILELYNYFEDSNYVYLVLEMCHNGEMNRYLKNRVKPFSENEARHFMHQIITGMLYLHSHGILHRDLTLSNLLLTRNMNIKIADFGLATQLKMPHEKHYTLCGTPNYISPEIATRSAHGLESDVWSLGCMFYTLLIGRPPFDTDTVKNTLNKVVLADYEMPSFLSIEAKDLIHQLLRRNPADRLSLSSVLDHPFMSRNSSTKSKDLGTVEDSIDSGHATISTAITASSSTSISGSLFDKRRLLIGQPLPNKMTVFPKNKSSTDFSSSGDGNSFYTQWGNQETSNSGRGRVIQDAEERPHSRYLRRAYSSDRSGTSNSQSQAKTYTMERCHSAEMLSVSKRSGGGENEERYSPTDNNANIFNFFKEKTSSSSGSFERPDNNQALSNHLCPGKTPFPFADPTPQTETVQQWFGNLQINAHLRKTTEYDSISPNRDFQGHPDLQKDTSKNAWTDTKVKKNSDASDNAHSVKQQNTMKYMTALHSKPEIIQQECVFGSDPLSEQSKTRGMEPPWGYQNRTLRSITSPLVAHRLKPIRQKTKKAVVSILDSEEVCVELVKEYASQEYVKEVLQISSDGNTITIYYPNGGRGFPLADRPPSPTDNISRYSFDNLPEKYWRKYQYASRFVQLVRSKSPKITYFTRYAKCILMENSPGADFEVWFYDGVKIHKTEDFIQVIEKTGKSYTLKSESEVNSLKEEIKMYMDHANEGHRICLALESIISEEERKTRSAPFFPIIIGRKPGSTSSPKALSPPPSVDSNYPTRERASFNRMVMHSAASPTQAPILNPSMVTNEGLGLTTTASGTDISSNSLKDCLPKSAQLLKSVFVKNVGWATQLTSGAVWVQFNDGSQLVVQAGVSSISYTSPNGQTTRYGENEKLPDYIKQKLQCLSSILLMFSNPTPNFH

[2] = target: T2, Receptor-type tyrosine-protein kinase FLT3 (Homo sapiens, UniProt P36888); assay: Inhibition of FLT3 (unknown origin)
T2 sequence (P36888 whole entry): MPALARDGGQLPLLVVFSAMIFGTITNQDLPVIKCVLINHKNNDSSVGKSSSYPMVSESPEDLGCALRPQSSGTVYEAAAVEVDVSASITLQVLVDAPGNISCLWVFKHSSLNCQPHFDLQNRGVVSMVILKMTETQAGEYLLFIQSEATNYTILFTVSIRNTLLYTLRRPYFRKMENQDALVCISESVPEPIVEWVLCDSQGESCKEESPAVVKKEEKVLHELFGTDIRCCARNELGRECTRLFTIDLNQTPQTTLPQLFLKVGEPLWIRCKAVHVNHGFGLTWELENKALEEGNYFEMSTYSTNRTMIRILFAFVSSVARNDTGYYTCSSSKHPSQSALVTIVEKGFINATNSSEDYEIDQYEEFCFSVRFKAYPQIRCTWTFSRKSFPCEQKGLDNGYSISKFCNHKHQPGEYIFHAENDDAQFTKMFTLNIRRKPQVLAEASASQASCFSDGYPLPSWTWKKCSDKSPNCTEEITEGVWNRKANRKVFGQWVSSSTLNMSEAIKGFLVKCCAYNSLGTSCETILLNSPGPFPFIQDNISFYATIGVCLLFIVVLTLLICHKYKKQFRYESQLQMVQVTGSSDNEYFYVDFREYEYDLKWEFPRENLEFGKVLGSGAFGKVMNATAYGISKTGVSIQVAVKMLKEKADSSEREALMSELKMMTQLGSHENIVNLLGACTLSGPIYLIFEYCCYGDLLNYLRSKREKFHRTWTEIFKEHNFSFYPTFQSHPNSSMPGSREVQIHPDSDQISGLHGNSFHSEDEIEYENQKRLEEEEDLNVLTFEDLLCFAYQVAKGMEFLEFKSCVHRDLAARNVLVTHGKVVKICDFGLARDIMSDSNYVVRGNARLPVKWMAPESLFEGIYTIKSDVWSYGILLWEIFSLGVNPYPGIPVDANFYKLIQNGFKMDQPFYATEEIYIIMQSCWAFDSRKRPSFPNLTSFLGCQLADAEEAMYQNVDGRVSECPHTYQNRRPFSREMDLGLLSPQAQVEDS

[3] = target: Vascular endothelial growth factor receptor 2 (Homo sapiens, UniProt P35968); assay: Inhibition of KDR (unknown origin)
HCC1954 = assay: Growth inhibition of human HCC1954; type: functional
Aurora kinase B = Aurora kinase B (Homo sapiens, UniProt Q96GD4); assay: Inhibition of AURKB (unknown origin)
MCF7 = assay: Growth inhibition of human MCF7; type: functional
Aurora kinase A = target: T3, Aurora kinase A (Homo sapiens, UniProt O14965); assay: Inhibition of AURKA (unknown origin)
T3 sequence (O14965 whole entry): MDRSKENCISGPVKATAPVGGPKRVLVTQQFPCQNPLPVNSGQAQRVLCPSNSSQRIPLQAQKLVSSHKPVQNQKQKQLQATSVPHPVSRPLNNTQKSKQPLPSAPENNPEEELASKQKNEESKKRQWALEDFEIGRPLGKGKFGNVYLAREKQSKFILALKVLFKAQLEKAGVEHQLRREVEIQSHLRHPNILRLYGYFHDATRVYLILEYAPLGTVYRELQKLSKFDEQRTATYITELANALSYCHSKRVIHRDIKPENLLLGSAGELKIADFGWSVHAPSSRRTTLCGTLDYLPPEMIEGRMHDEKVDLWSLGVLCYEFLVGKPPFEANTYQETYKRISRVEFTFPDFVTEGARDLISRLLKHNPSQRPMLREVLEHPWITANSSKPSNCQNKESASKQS

[4] = Half life in human microsomes; type: ADME, Microsome
[5] = AUC in rat at 5 mg/kg, po; type: ADME, organism-based; conditions: in vivo, read-out: AUC
[6] = Lipophilicity, log D of the compound at pH 7.4; type: physicochemical; conditions: buffer
[7] = Oral bioavailability in rat at 5 mg/kg; type: ADME, organism-based; conditions: in vivo
[8] = Half life in mouse microsomes; type: ADME, Microsome
CYP3A4 = CYP3A4 (Homo sapiens, UniProt P08684); assay: Inhibition of CYP3A4 (unknown origin) at 1 uM; type: ADME
CYP2C9 = CYP2C9 (Homo sapiens, UniProt P11712); assay: Inhibition of CYP2C9 (unknown origin) at 1 uM; type: ADME
[9] = AUC in rat at 1 mg/kg, iv; type: ADME, organism-based; conditions: in vivo
[10] = Half life in rat at 1 mg/kg, iv; type: ADME, organism-based; conditions: in vivo
[11] = Clearance in rat at 1 mg/kg, iv; type: ADME, organism-based; conditions: in vivo
CYP2C19 = CYP2C19 (Homo sapiens, UniProt P33261); assay: Inhibition of CYP2C19 (unknown origin) at 1 uM; type: ADME
[12] = Cmax in mouse at 25 mg/kg, po; type: ADME, organism-based; design: dose 25 mg/kg, route oral; conditions: in vivo
[13] = AUC in mouse at 25 mg/kg, po; type: ADME, organism-based; conditions: in vivo

Aurora kinase B, sequence (Q96GD4 whole entry): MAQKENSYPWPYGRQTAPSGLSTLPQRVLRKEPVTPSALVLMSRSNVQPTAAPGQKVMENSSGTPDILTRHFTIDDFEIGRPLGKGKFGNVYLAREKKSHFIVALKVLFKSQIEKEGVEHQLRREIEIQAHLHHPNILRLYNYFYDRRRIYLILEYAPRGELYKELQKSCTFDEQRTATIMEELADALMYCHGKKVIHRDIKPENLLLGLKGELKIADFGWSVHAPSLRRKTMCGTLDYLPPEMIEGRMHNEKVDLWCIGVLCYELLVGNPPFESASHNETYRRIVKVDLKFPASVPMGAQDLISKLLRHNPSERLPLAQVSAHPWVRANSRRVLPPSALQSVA
Vascular endothelial growth factor receptor 2, sequence (P35968 whole entry): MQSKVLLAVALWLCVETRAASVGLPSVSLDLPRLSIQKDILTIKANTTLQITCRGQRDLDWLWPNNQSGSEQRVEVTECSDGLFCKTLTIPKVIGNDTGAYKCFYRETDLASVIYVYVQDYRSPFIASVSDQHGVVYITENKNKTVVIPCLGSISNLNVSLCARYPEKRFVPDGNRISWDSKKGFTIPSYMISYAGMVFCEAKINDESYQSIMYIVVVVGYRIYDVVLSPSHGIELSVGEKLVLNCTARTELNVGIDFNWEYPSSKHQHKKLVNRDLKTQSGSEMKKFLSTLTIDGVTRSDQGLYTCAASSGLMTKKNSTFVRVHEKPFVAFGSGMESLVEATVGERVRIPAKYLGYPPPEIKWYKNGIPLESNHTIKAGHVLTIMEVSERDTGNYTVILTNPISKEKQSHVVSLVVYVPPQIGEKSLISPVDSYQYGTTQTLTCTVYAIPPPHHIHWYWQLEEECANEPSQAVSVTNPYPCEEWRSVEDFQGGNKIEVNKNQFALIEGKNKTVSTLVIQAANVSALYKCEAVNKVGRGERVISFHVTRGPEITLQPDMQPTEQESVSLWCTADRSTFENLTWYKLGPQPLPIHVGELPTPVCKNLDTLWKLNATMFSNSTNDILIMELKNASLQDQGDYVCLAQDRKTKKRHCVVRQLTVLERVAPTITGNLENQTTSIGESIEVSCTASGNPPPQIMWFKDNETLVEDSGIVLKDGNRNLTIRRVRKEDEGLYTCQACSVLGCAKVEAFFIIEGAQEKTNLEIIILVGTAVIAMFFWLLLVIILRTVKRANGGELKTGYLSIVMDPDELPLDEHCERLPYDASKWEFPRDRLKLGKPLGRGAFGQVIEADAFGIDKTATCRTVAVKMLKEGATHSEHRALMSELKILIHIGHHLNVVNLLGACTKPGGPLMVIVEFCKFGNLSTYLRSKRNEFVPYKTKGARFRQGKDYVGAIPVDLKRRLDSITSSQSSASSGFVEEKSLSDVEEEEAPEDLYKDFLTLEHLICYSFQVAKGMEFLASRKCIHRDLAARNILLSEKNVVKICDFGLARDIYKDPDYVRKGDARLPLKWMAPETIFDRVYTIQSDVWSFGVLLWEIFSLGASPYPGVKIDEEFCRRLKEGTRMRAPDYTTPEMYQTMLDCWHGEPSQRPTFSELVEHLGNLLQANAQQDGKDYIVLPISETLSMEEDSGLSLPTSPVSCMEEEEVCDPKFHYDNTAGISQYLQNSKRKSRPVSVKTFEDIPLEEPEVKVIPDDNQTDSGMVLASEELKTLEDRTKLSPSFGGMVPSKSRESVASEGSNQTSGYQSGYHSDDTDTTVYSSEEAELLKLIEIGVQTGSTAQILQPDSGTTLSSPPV
CYP2C19, sequence (P33261 whole entry): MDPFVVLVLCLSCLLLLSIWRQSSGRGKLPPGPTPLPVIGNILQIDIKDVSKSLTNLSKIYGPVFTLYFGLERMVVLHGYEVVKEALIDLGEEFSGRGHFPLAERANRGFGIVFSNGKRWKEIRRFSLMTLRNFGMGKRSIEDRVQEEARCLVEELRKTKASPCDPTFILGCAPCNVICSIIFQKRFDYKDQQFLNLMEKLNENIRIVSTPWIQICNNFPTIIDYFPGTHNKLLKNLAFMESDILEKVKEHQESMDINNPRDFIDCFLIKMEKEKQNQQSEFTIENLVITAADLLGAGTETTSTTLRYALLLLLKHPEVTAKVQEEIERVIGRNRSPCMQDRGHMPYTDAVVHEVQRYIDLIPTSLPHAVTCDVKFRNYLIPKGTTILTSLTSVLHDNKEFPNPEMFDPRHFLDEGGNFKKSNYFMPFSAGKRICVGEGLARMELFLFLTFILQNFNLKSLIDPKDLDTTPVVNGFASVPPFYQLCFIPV
CYP3A4, sequence (P08684 whole entry): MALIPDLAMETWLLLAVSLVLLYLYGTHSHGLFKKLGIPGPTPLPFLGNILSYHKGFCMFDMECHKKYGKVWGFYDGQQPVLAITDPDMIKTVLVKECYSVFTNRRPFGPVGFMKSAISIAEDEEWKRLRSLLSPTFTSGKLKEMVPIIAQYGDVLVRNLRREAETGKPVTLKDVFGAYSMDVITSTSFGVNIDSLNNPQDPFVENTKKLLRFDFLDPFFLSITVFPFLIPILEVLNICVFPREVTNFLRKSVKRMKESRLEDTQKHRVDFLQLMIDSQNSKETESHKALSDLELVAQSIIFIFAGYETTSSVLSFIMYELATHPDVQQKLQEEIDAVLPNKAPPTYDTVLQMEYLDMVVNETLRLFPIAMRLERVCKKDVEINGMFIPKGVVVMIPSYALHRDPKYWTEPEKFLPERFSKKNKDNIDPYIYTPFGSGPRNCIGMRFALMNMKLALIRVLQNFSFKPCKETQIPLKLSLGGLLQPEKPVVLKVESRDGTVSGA
CYP2C9, sequence (P11712 whole entry): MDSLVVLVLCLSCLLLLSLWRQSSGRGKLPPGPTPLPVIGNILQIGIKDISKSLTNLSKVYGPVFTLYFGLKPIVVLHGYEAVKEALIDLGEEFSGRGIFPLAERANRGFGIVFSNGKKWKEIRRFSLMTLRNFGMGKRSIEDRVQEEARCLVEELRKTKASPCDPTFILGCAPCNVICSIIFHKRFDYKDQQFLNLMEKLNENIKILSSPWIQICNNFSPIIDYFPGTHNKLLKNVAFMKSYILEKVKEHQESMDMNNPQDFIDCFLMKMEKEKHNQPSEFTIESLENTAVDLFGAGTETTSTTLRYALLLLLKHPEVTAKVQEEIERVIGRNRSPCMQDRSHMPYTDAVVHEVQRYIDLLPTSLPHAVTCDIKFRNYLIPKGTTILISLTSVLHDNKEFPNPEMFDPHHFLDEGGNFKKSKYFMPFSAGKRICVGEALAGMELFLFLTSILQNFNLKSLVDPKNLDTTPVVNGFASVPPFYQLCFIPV

SMILES | GI50 (MDA-MB-468) [nM] | IC50 [1] [nM] | IC50 [2] [nM] | GI50 (HCC1954) [nM] | IC50 (Aurora kinase B) [nM] | GI50 (MCF7) [nM] | IC50 (Aurora kinase A) [nM] | half-life [4] [min] | logD [6] | half-life [8] [min] | also measured
O=C1Nc2ccccc2C1=Cc1ccc2c(-c3ccncc3)n[nH]c2c1 | 9900 | 220 | 120 |  |  |  |  |  |  |  | 
COc1ccc2c(c1)[C@@]1(C[C@@H]1c1ccc3c(-c4ccc(N5CCN(C)CC5)nc4)n[nH]c3c1)C(=O)N2 | 3700 | 30 | 6500 | 5900 | 2100 | 5400 | > 1000 |  |  |  | IC50 [3]: > 50000 nM
COc1ccc2c(c1)[C@]1(C[C@H]1c1ccc3c(/C=C/c4ccc(N5CCN(C)CC5)nc4)n[nH]c3c1)C(=O)N2 |  |  |  |  |  |  |  | 16 | 4.2 | 9 | AUC [5]: 250 ng·h/mL; bioavailability [7]: 15%; inhibition at 1 µM (CYP3A4): 76%; inhibition at 1 µM (CYP2C9): 73%; AUC [9]: 330 ng·h/mL; half-life [10]: 144 min; clearance [11]: 51.7 mL/min/kg; inhibition at 1 µM (CYP2C19): 93%
COc1ccc2c(c1)[C@]1(C[C@H]1c1ccc3c(-c4ccc(N5CCC(O)CC5)nc4)n[nH]c3c1)C(=O)N2 (racemic) | 890 |  | 240 |  |  |  |  |  |  |  | 
COc1ccc2c(c1)[C@]1(C[C@H]1c1ccc3c(-c4ccc(N5CCN(C)CC5)nc4)n[nH]c3c1)C(=O)N2 (racemic) | 120 | 1 | 260 |  |  |  |  |  |  |  | 
O=C1Nc2ccccc2C1=Cc1ccc2c(-c3cccnc3)n[nH]c2c1 | 5000 | 29 | 27 |  |  |  |  |  |  |  | 
O=C1Nc2ccccc2C1=Cc1ccc2c(-c3ccc[nH]3)n[nH]c2c1 | 7700 | 64 | 50 |  |  |  |  |  |  |  | 
CN1CCN(c2ccc(-c3n[nH]c4cc(C=C5C(=O)Nc6ccccc65)ccc34)cn2)CC1 | 1300 | 13 | 17 |  |  |  |  |  |  |  | 
COc1ccc2c(c1)[C@]1(C[C@H]1c1ccc3c(-c4ccc(N5CCN(CCO)CC5)cc4)n[nH]c3c1)C(=O)N2 | 68 | 1.2 | 77 | 3000 | 7 | 1700 | > 1000 | > 60 | 4 | 28 | AUC [5]: 130 ng·h/mL; Cmax ([12]; read-out: Cmax): 250 ng/mL; bioavailability [7]: 11%; inhibition at 1 µM (CYP3A4): 11%; AUC [13]: 270 ng·h/mL; inhibition at 1 µM (CYP2C9): 41%; AUC [9]: 220 ng·h/mL; half-life [10]: 84 min; clearance [11]: 76.7 mL/min/kg; inhibition at 1 µM (CYP2C19): 28%
COc1ccc2c(c1)[C@]1(C[C@H]1c1ccc3c(-c4ccc(N5CCNCC5)cc4)n[nH]c3c1)C(=O)N2 | < 10 | 0.45 | 44 | 3600 | 6.9 | < 10 | > 1000 | 59 | 2.6 | > 60 | IC50 [3]: 5600 nM; Cmax ([12]; BLD = below limit of detection): Bld

— ChEMBL document CHEMBL4428091, “Design and optimization of (3-aryl-1H-indazol-6-yl)spiro[cyclopropane-1,3'-indolin]-2'-ones as potent PLK4 inhibitors with oral antitumor efficacy” (Bioorg Med Chem Lett, 2016)
